From patent publication US12643859B2, “Pyridyl oxycarboxylic acid oxime derivative and preparation method therefor, weeding composition and application thereof” (Qingdao Kingagroot Chemical Compound Co., Ltd., priority 2018, dated 2026)

Test system: Monocotyledonous and dicotyledonous weed seeds and main crop seeds
Test: Post-emergence test experiment (Table 3, 1000 g a.i./ha)
Type: in vivo
Details: 3 weeks in greenhouse, fresh weight inhibition
Description: The above described growth inhibition rate is fresh weight inhibition rate.
Post-emergence test experiment: Monocotyledonous and dicotyledonous weed seeds and main crop seeds (i. e. wheat, corn, rice, soybean, cotton, oilseed, millet and sorghum.) were put into a plastic pot loaded with soil. Then covered with 0.5-2 cm soil, the seeds were allowed to grow in good greenhouse environment. The test plants were treated at 2-3 leaf stage 2 weeks after sowing. The test compounds of the invention were dissolved with acetone respectively, then added with tween-80, and using 1.5 liters per hectare of an emulsible concentrate of methyl oleate as a synergist, and diluted by certain amount of water to certain concentration. The solution was sprayed to the plants with a sprayer. Then the plants were cultured for 3 weeks in the greenhouse, and the experiment result of weed controlling effect was listed in tables 3-4.

`CSC(=O)C(=NOC(=O)C(C)Oc1nc(F)c(Cl)c(N)c1Cl)C(=O)NCc1ccc(Cl)cc1` (centres unmarked) [Compound 102] was tested, and the “Activity level (growth inhibition rate) Digitaria sanguinalis” value was 5 (Level 5: the growth inhibition rate is greater than 85%), the “Activity level (growth inhibition rate) Echinochloa crusgalli” value was 5 (Level 5: the growth inhibition rate is greater than 85%) and the “Activity level (growth inhibition rate) Galium spurium” value was 5 (Level 5: the growth inhibition rate is greater than 85%). The “Activity level (growth inhibition rate) Leptochloa chinensis” value was 5 (Level 5: the growth inhibition rate is greater than 85%), the “Activity level (growth inhibition rate) Monochoria Vaginalis” value was 5 (Level 5: the growth inhibition rate is greater than 85%) and the “Activity level (growth inhibition rate) Murdannia triquetra” value was 5 (Level 5: the growth inhibition rate is greater than 85%). For the same compound, the “Activity level (growth inhibition rate) Setaria viridis” value was 5 (Level 5: the growth inhibition rate is greater than 85%).
In the case of `CC(Oc1nc(F)c(Cl)c(N)c1Cl)C(=O)ON=C(c1ccccc1)c1cccc(Cl)c1` (centres unmarked) [Compound 79], the “Activity level (growth inhibition rate) Digitaria sanguinalis” value was 5 (Level 5: the growth inhibition rate is greater than 85%), the “Activity level (growth inhibition rate) Echinochloa crusgalli” value was 5 (Level 5: the growth inhibition rate is greater than 85%) and the “Activity level (growth inhibition rate) Galium spurium” value was 5 (Level 5: the growth inhibition rate is greater than 85%). The “Activity level (growth inhibition rate) Leptochloa chinensis” value was 5 (Level 5: the growth inhibition rate is greater than 85%), the “Activity level (growth inhibition rate) Monochoria Vaginalis” value was 5 (Level 5: the growth inhibition rate is greater than 85%) and the “Activity level (growth inhibition rate) Murdannia triquetra” value was 5 (Level 5: the growth inhibition rate is greater than 85%). The “Activity level (growth inhibition rate) Setaria viridis” value was 5 (Level 5: the growth inhibition rate is greater than 85%).
For `CC(Oc1nc(F)c(Cl)c(N)c1Cl)C(=O)ON=C(c1ccccc1)c1ccc(F)cc1` (centres unmarked) [Compound 83], the “Activity level (growth inhibition rate) Digitaria sanguinalis” value was 5 (Level 5: the growth inhibition rate is greater than 85%), the “Activity level (growth inhibition rate) Echinochloa crusgalli” value was 5 (Level 5: the growth inhibition rate is greater than 85%) and the “Activity level (growth inhibition rate) Galium spurium” value was 5 (Level 5: the growth inhibition rate is greater than 85%). For the same compound, the “Activity level (growth inhibition rate) Leptochloa chinensis” value was 5 (Level 5: the growth inhibition rate is greater than 85%), the “Activity level (growth inhibition rate) Monochoria Vaginalis” value was 5 (Level 5: the growth inhibition rate is greater than 85%) and the “Activity level (growth inhibition rate) Murdannia triquetra” value was 5 (Level 5: the growth inhibition rate is greater than 85%). For the same compound, the “Activity level (growth inhibition rate) Setaria viridis” value was 5 (Level 5: the growth inhibition rate is greater than 85%).
For `CC(Oc1nc(F)c(Cl)c(N)c1Cl)C(=O)ON=C1CCCCC1` (centres unmarked) [Compound 116], the “Activity level (growth inhibition rate) Digitaria sanguinalis” value was 5 (Level 5: the growth inhibition rate is greater than 85%), the “Activity level (growth inhibition rate) Echinochloa crusgalli” value was 5 (Level 5: the growth inhibition rate is greater than 85%) and the “Activity level (growth inhibition rate) Galium spurium” value was 5 (Level 5: the growth inhibition rate is greater than 85%). For the same compound, the “Activity level (growth inhibition rate) Leptochloa chinensis” value was 5 (Level 5: the growth inhibition rate is greater than 85%), the “Activity level (growth inhibition rate) Monochoria Vaginalis” value was 5 (Level 5: the growth inhibition rate is greater than 85%) and the “Activity level (growth inhibition rate) Murdannia triquetra” value was 5 (Level 5: the growth inhibition rate is greater than 85%). The “Activity level (growth inhibition rate) Setaria viridis” value was 5 (Level 5: the growth inhibition rate is greater than 85%).
With `CC(Oc1nc(F)c(Cl)c(N)c1Cl)C(=O)ON=C(Br)c1ccc(C#N)cc1` (centres unmarked) [Compound 86] the “Activity level (growth inhibition rate) Digitaria sanguinalis” value was 5 (Level 5: the growth inhibition rate is greater than 85%), the “Activity level (growth inhibition rate) Echinochloa crusgalli” value was 5 (Level 5: the growth inhibition rate is greater than 85%) and the “Activity level (growth inhibition rate) Galium spurium” value was 5 (Level 5: the growth inhibition rate is greater than 85%). The “Activity level (growth inhibition rate) Leptochloa chinensis” value was 5 (Level 5: the growth inhibition rate is greater than 85%), the “Activity level (growth inhibition rate) Monochoria Vaginalis” value was 5 (Level 5: the growth inhibition rate is greater than 85%) and the “Activity level (growth inhibition rate) Murdannia triquetra” value was 5 (Level 5: the growth inhibition rate is greater than 85%). For the same compound, the “Activity level (growth inhibition rate) Setaria viridis” value was 5 (Level 5: the growth inhibition rate is greater than 85%).
`CC(Oc1nc(F)c(Cl)c(N)c1Cl)C(=O)ON=C(c1ccccc1)c1ccc(C(F)(F)F)cc1` (centres unmarked) [Compound 81] was tested, and the “Activity level (growth inhibition rate) Digitaria sanguinalis” value was 5 (Level 5: the growth inhibition rate is greater than 85%), the “Activity level (growth inhibition rate) Echinochloa crusgalli” value was 5 (Level 5: the growth inhibition rate is greater than 85%) and the “Activity level (growth inhibition rate) Galium spurium” value was 5 (Level 5: the growth inhibition rate is greater than 85%). For the same compound, the “Activity level (growth inhibition rate) Leptochloa chinensis” value was 5 (Level 5: the growth inhibition rate is greater than 85%), the “Activity level (growth inhibition rate) Monochoria Vaginalis” value was 5 (Level 5: the growth inhibition rate is greater than 85%) and the “Activity level (growth inhibition rate) Murdannia triquetra” value was 5 (Level 5: the growth inhibition rate is greater than 85%). For the same compound, the “Activity level (growth inhibition rate) Setaria viridis” value was 5 (Level 5: the growth inhibition rate is greater than 85%).
In the case of `CC(Oc1nc(F)c(Cl)c(N)c1Cl)C(=O)ON=C(Cc1ccccc1)c1ccccc1N` (centres unmarked) [Compound 93], the “Activity level (growth inhibition rate) Digitaria sanguinalis” value was 5 (Level 5: the growth inhibition rate is greater than 85%), the “Activity level (growth inhibition rate) Echinochloa crusgalli” value was 5 (Level 5: the growth inhibition rate is greater than 85%) and the “Activity level (growth inhibition rate) Galium spurium” value was 5 (Level 5: the growth inhibition rate is greater than 85%). The “Activity level (growth inhibition rate) Leptochloa chinensis” value was 5 (Level 5: the growth inhibition rate is greater than 85%), the “Activity level (growth inhibition rate) Monochoria Vaginalis” value was 5 (Level 5: the growth inhibition rate is greater than 85%) and the “Activity level (growth inhibition rate) Murdannia triquetra” value was 5 (Level 5: the growth inhibition rate is greater than 85%). For the same compound, the “Activity level (growth inhibition rate) Setaria viridis” value was 5 (Level 5: the growth inhibition rate is greater than 85%).
`CC(Oc1nc(F)c(Cl)c(N)c1Cl)C(=O)ON=C(c1ccccc1)c1ccc(C2CC2)cc1` (centres unmarked) [Compound 80] was tested, and the “Activity level (growth inhibition rate) Digitaria sanguinalis” value was 5 (Level 5: the growth inhibition rate is greater than 85%), the “Activity level (growth inhibition rate) Echinochloa crusgalli” value was 5 (Level 5: the growth inhibition rate is greater than 85%) and the “Activity level (growth inhibition rate) Galium spurium” value was 5 (Level 5: the growth inhibition rate is greater than 85%). The “Activity level (growth inhibition rate) Leptochloa chinensis” value was 5 (Level 5: the growth inhibition rate is greater than 85%), the “Activity level (growth inhibition rate) Monochoria Vaginalis” value was 5 (Level 5: the growth inhibition rate is greater than 85%) and the “Activity level (growth inhibition rate) Murdannia triquetra” value was 5 (Level 5: the growth inhibition rate is greater than 85%). For the same compound, the “Activity level (growth inhibition rate) Setaria viridis” value was 5 (Level 5: the growth inhibition rate is greater than 85%).
For `COc1ccc(CNC(=O)C(C)=NOC(=O)C(C)Oc2nc(F)c(Cl)c(N)c2Cl)cc1` (centres unmarked) [Compound 103], the “Activity level (growth inhibition rate) Digitaria sanguinalis” value was 5 (Level 5: the growth inhibition rate is greater than 85%), the “Activity level (growth inhibition rate) Echinochloa crusgalli” value was 5 (Level 5: the growth inhibition rate is greater than 85%) and the “Activity level (growth inhibition rate) Galium spurium” value was 5 (Level 5: the growth inhibition rate is greater than 85%). For the same compound, the “Activity level (growth inhibition rate) Leptochloa chinensis” value was 5 (Level 5: the growth inhibition rate is greater than 85%), the “Activity level (growth inhibition rate) Monochoria Vaginalis” value was 5 (Level 5: the growth inhibition rate is greater than 85%) and the “Activity level (growth inhibition rate) Murdannia triquetra” value was 5 (Level 5: the growth inhibition rate is greater than 85%). For the same compound, the “Activity level (growth inhibition rate) Setaria viridis” value was 5 (Level 5: the growth inhibition rate is greater than 85%).
`C=COC(=O)C(=NOC(=O)C(C)Oc1nc(F)c(Cl)c(N)c1Cl)C(=O)N(C)c1ccccc1` (centres unmarked) [Compound 106] was tested, and the “Activity level (growth inhibition rate) Digitaria sanguinalis” value was 5 (Level 5: the growth inhibition rate is greater than 85%), the “Activity level (growth inhibition rate) Echinochloa crusgalli” value was 5 (Level 5: the growth inhibition rate is greater than 85%) and the “Activity level (growth inhibition rate) Galium spurium” value was 5 (Level 5: the growth inhibition rate is greater than 85%). The “Activity level (growth inhibition rate) Leptochloa chinensis” value was 5 (Level 5: the growth inhibition rate is greater than 85%), the “Activity level (growth inhibition rate) Monochoria Vaginalis” value was 5 (Level 5: the growth inhibition rate is greater than 85%) and the “Activity level (growth inhibition rate) Murdannia triquetra” value was 5 (Level 5: the growth inhibition rate is greater than 85%). The “Activity level (growth inhibition rate) Setaria viridis” value was 5 (Level 5: the growth inhibition rate is greater than 85%).
For `CC(Oc1nc(F)c(Cl)c(N)c1Cl)C(=O)ON=C(C(=O)N(C)C)c1ccccc1` (centres unmarked) [Compound 99], the “Activity level (growth inhibition rate) Digitaria sanguinalis” value was 5 (Level 5: the growth inhibition rate is greater than 85%), the “Activity level (growth inhibition rate) Echinochloa crusgalli” value was 5 (Level 5: the growth inhibition rate is greater than 85%) and the “Activity level (growth inhibition rate) Galium spurium” value was 5 (Level 5: the growth inhibition rate is greater than 85%). For the same compound, the “Activity level (growth inhibition rate) Leptochloa chinensis” value was 5 (Level 5: the growth inhibition rate is greater than 85%), the “Activity level (growth inhibition rate) Monochoria Vaginalis” value was 5 (Level 5: the growth inhibition rate is greater than 85%) and the “Activity level (growth inhibition rate) Murdannia triquetra” value was 5 (Level 5: the growth inhibition rate is greater than 85%). For the same compound, the “Activity level (growth inhibition rate) Setaria viridis” value was 5 (Level 5: the growth inhibition rate is greater than 85%).
`CCCC(C)=NOC(=O)C(Oc1nc(F)c(Cl)c(N)c1Cl)C1CC1` (centres unmarked) [Compound 28] was tested, and the “Activity level (growth inhibition rate) Galium spurium” value was 5 (Level 5: the growth inhibition rate is greater than 85%), the “Activity level (growth inhibition rate) Monochoria Vaginalis” value was 5 (Level 5: the growth inhibition rate is greater than 85%) and the “Activity level (growth inhibition rate) Murdannia triquetra” value was 5 (Level 5: the growth inhibition rate is greater than 85%).
